# Tested on: MV-4-11 cells
# Experiment: Gene expression microarray analysis (Affymetrix PrimeView) and GSEA
# Format: cell-based, human
# Parameters: RFU PODN (11730768_x_at) / Fold change /veh PODN (11730768_x_at) / RFU LINC00158 (11744669_a_at) / Fold change /veh LINC00158 (11744669_a_at) / RFU DUSP10 (11751237_a_at) / Fold change /veh DUSP10 (11751237_a_at) / RFU ID3 (11757404_x_at) / Fold change /veh ID3 (11757404_x_at) / RFU PLEKHG5 (11737974_s_at) / Fold change /veh PLEKHG5 (11737974_s_at) / RFU LRRC4B (11730491_at) / Fold change /veh LRRC4B (11730491_at) / RFU GIMAP4 (11747438_a_at) / Fold change /veh GIMAP4 (11747438_a_at) / RFU KRT8 (11758183_x_at) / Fold change /veh KRT8 (11758183_x_at) / RFU CNN1 (11734310_a_at) / Fold change /veh CNN1 (11734310_a_at) / RFU VPS37D (11726825_at) / Fold change /veh VPS37D (11726825_at) / RFU C10orf10 (11716522_x_at) / Fold change /veh C10orf10 (11716522_x_at) / RFU KIR2DL2 /// KIR2DL4 /// KIR2DL5A /// KIR2DL5B /// KIR2DS1 /// KIR2DS2 /// KIR2DS3 /// KIR2DS4 /// KIR3DL3 /// KIR3DL3 /// KIR3DS1 (11738374_at) / Fold change /veh KIR2DL2 /// KIR2DL4 /// KIR2DL5A /// KIR2DL5B /// KIR2DS1 /// KIR2DS2 /// KIR2DS3 /// KIR2DS4 /// KIR3DL3 /// KIR3DL3 /// KIR3DS1 (11738374_at) / RFU C1QL1 (11718748_at) / Fold change /veh C1QL1 (11718748_at) / RFU TMPRSS4 (11747572_a_at) / Fold change /veh TMPRSS4 (11747572_a_at) / RFU HAMP (11756126_x_at) / Fold change /veh HAMP (11756126_x_at) / RFU RNFT2 (11725882_a_at) / Fold change /veh RNFT2 (11725882_a_at) / RFU NR4A2 (11747474_a_at) / Fold change /veh NR4A2 (11747474_a_at) / RFU ABCC12 (11746883_a_at) / Fold change /veh ABCC12 (11746883_a_at) / RFU TMEM136 (11760407_x_at) / Fold change /veh TMEM136 (11760407_x_at) / RFU CLDN22 /// WWC2 (11732394_at) / Fold change /veh CLDN22 /// WWC2 (11732394_at) / RFU HLA-DPB1 (11760878_x_at) / Fold change /veh HLA-DPB1 (11760878_x_at) / RFU SPINT1 (11716480_a_at) / Fold change /veh SPINT1 (11716480_a_at) / RFU GAP43 (11754022_s_at) / Fold change /veh GAP43 (11754022_s_at) / RFU A4GNT (11735810_at) / Fold change /veh A4GNT (11735810_at) / RFU PRB3 (11715151_x_at) / Fold change /veh PRB3 (11715151_x_at) / RFU TUBB4B (11761932_at) / Fold change /veh TUBB4B (11761932_at) / RFU CAPN14 (11732068_a_at) / Fold change /veh CAPN14 (11732068_a_at) / RFU TMCC2 (11721928_a_at) / Fold change /veh TMCC2 (11721928_a_at) / RFU IRGQ (11745062_a_at) / Fold change /veh IRGQ (11745062_a_at) / RFU FAM174B (11720279_a_at) / Fold change /veh FAM174B (11720279_a_at) / RFU TMPRSS4 (11748680_a_at) / Fold change /veh TMPRSS4 (11748680_a_at) / RFU FAM212B (11763350_a_at) / Fold change /veh FAM212B (11763350_a_at) / RFU PLEKHG5 (11743358_a_at) / Fold change /veh PLEKHG5 (11743358_a_at) / RFU ZSCAN30 (11745921_a_at) / Fold change /veh ZSCAN30 (11745921_a_at) / RFU CMKLR1 (11741424_a_at) / Fold change /veh CMKLR1 (11741424_a_at) / RFU LOC101060620 /// MAPK8IP1 (11723275_at) / Fold change /veh LOC101060620 /// MAPK8IP1 (11723275_at) / RFU SPTSSB (11747773_x_at) / Fold change /veh SPTSSB (11747773_x_at) / RFU PRSS12 (11739890_at) / Fold change /veh PRSS12 (11739890_at) / RFU BIN1 (11741810_x_at) / Fold change /veh BIN1 (11741810_x_at) / RFU WNT11 (11732464_a_at) / Fold change /veh WNT11 (11732464_a_at) / RFU C10orf10 (11716521_a_at) / Fold change /veh C10orf10 (11716521_a_at) / RFU C5orf56 (11738089_at) / Fold change /veh C5orf56 (11738089_at) / RFU CYB561 (11721691_x_at) / Fold change /veh CYB561 (11721691_x_at) / RFU ANKRD19P (11752326_a_at) / Fold change /veh ANKRD19P (11752326_a_at) / RFU OR2T12 /// OR2T33 /// OR2T8 (11738714_s_at) / Fold change /veh OR2T12 /// OR2T33 /// OR2T8 (11738714_s_at) / RFU VCAN (11748164_a_at) / Fold change /veh VCAN (11748164_a_at) / RFU JSRP1 (11732532_at) / Fold change /veh JSRP1 (11732532_at) / RFU KRTAP10-11 (11738290_x_at) / Fold change /veh KRTAP10-11 (11738290_x_at) / RFU MYO3A (11730013_a_at) / Fold change /veh MYO3A (11730013_a_at) / RFU EBF3 (11725865_a_at) / Fold change /veh EBF3 (11725865_a_at) / RFU CAMK2N1 (11719241_x_at) / Fold change /veh CAMK2N1 (11719241_x_at) / RFU C5orf56 (11738088_a_at) / Fold change /veh C5orf56 (11738088_a_at) / RFU OLFML3 (11715873_a_at) / Fold change /veh OLFML3 (11715873_a_at) / RFU LOC100653217 /// NTM (11731650_a_at) / Fold change /veh LOC100653217 /// NTM (11731650_a_at) / RFU MAPK11 (11762145_a_at) / Fold change /veh MAPK11 (11762145_a_at) / RFU FIZ1 (11724087_x_at) / Fold change /veh FIZ1 (11724087_x_at) / RFU OASL (11726364_x_at) / Fold change /veh OASL (11726364_x_at) / RFU SOX15 (11748057_x_at) / Fold change /veh SOX15 (11748057_x_at) / RFU CD79A (11719716_a_at) / Fold change /veh CD79A (11719716_a_at) / RFU HIST1H1D (11736915_at) / Fold change /veh HIST1H1D (11736915_at) / RFU CASKIN2 (11723855_a_at) / Fold change /veh CASKIN2 (11723855_a_at) / RFU LOC730098 (11760151_x_at) / Fold change /veh LOC730098 (11760151_x_at) / RFU OR4N2 (11742367_at) / Fold change /veh OR4N2 (11742367_at) / RFU PRRT2 (11749266_a_at) / Fold change /veh PRRT2 (11749266_a_at) / RFU SNX32 (11753110_a_at) / Fold change /veh SNX32 (11753110_a_at) / RFU CDHR5 (11726645_a_at) / Fold change /veh CDHR5 (11726645_a_at) / RFU RCAN1 (11760418_a_at) / Fold change /veh RCAN1 (11760418_a_at) / RFU FAM167A (11723789_a_at) / Fold change /veh FAM167A (11723789_a_at) / RFU FAM26E (11764081_at) / Fold change /veh FAM26E (11764081_at) / RFU ISYNA1 (11749810_s_at) / Fold change /veh ISYNA1 (11749810_s_at) / RFU ACY1 (11761880_at) / Fold change /veh ACY1 (11761880_at) / RFU 11764098_at / Fold change /veh 11764098_at / RFU SAMD14 (11745864_x_at) / Fold change /veh SAMD14 (11745864_x_at) / RFU NPB (11741838_a_at) / Fold change /veh NPB (11741838_a_at) / RFU TMPRSS6 (11731388_a_at) / Fold change /veh TMPRSS6 (11731388_a_at) / RFU KRTAP10-2 (11738614_at) / Fold change /veh KRTAP10-2 (11738614_at) / RFU ARHGAP8 /// PRR5-ARHGAP8 (11727945_x_at) / Fold change /veh ARHGAP8 /// PRR5-ARHGAP8 (11727945_x_at) / RFU KRTAP5-7 /// NADSYN1 (11734609_at) / Fold change /veh KRTAP5-7 /// NADSYN1 (11734609_at) / RFU RASL12 (11751679_a_at) / Fold change /veh RASL12 (11751679_a_at) / RFU CDKN2B (11736163_a_at) / Fold change /veh CDKN2B (11736163_a_at) / RFU PRF1 (11729649_at) / Fold change /veh PRF1 (11729649_at) / RFU, ZNF638 /// ZNF638-IT1 / Fold change vs veh, ZNF638 /// ZNF638-IT1 / RFU, PANK3 / Fold change vs veh, PANK3 / RFU, SH3YL1 / Fold change vs veh, SH3YL1 / RFU, ZEB2 / Fold change vs veh, ZEB2 / RFU, NRIP1 / Fold change vs veh, NRIP1 / RFU, PTTG1IP / Fold change vs veh, PTTG1IP / RFU, CAPN2 / Fold change vs veh, CAPN2 / RFU, MED14 / Fold change vs veh, MED14 / RFU, SNORA58 / Fold change vs veh, SNORA58 / RFU, C1orf63 / Fold change vs veh, C1orf63 / RFU, LRRFIP1 / Fold change vs veh, LRRFIP1 / RFU, NDUFAF7 / Fold change vs veh, NDUFAF7 / RFU, SLC12A2 / Fold change vs veh, SLC12A2 / RFU, IBTK / Fold change vs veh, IBTK / RFU, ESF1 / Fold change vs veh, ESF1 / Fold change vs veh, TMEM50B / RFU, TAOK1 / Fold change vs veh, TAOK1 / RFU, ACBD3 / Fold change vs veh, ACBD3 / RFU, TMA16 / Fold change vs veh, TMA16 / RFU, RWDD3 / Fold change vs veh, RWDD3 / RFU, BCAT1 / Fold change vs veh, BCAT1 / RFU, EDEM3 / Fold change vs veh, EDEM3 / RFU, TMEM33 / Fold change vs veh, TMEM33 / RFU, WDR75 / Fold change vs veh, WDR75 / RFU, AHCTF1 / Fold change vs veh, AHCTF1 / RFU, TFRC / Fold change vs veh, TFRC / RFU, ZDHHC17 / Fold change vs veh, ZDHHC17 / RFU, NOM1 / Fold change vs veh, NOM1 / RFU, ARL8B / Fold change vs veh, ARL8B / RFU, ZBTB11 / Fold change vs veh, ZBTB11 / RFU, TAMM41 / Fold change vs veh, TAMM41 / RFU, KIAA1704 /// LOC100996395 / Fold change vs veh, KIAA1704 /// LOC100996395 / RFU, ING1 / Fold change vs veh, ING1 / RFU, TRMT61B / Fold change vs veh, TRMT61B / RFU, FUBP3 / Fold change vs veh, FUBP3 / RFU, TP53 / Fold change vs veh, TP53 / RFU, TNKS2 / Fold change vs veh, TNKS2 / RFU, ZFP14 / Fold change vs veh, ZFP14 / RFU, ACTR2 / Fold change vs veh, ACTR2 / RFU, PPP3R1 / Fold change vs veh, PPP3R1 / RFU, PIK3R1 / Fold change vs veh, PIK3R1 / RFU, HNRNPA1 / Fold change vs veh, HNRNPA1 / RFU, RNF170 / Fold change vs veh, RNF170 / RFU, ZNF28 / Fold change vs veh, ZNF28 / RFU, RNGTT / Fold change vs veh, RNGTT / RFU, OGT / Fold change vs veh, OGT / RFU, BRD1 / Fold change vs veh, BRD1 / RFU, MARS / Fold change vs veh, MARS / RFU, ZNF655 / Fold change vs veh, ZNF655 / RFU, FAHD1 / Fold change vs veh, FAHD1 / RFU, BDP1 / Fold change vs veh, BDP1 / RFU, LRRCC1 / Fold change vs veh, LRRCC1 / RFU, ARID1A / Fold change vs veh, ARID1A / RFU, ZNF146 / Fold change vs veh, ZNF146 / RFU, ZNF330 / Fold change vs veh, ZNF330 / RFU, GPN3 / Fold change vs veh, GPN3 / RFU, C9orf123 / Fold change vs veh, C9orf123 / RFU, N4BP2L2 / Fold change vs veh, N4BP2L2 / RFU, ARFIP1 / Fold change vs veh, ARFIP1 / RFU, FAM179B / Fold change vs veh, FAM179B / RFU, BCL10 / Fold change vs veh, BCL10 / RFU, UHRF1BP1L / Fold change vs veh, UHRF1BP1L / RFU, BET1 / Fold change vs veh, BET1 / RFU, CNOT2 / Fold change vs veh, CNOT2 / RFU, ZNF268 / Fold change vs veh, ZNF268 / Fold change vs veh, ZNF507 / RFU, DGCR2 / Fold change vs veh, DGCR2 / RFU, WDSUB1 / Fold change vs veh, WDSUB1 / Fold change vs veh, HSP90B1 /// MIR3652 / RFU, ADSS / Fold change vs veh, ADSS / RFU, GK / Fold change vs veh, GK / RFU, ZNF148 / Fold change vs veh, ZNF148 / RFU, TAF9 / Fold change vs veh, TAF9 / RFU, SLC1A5 / Fold change vs veh, SLC1A5 / RFU, SLMO2 / Fold change vs veh, SLMO2 / RFU, ABCC4 / Fold change vs veh, ABCC4 / RFU, LOC101060439 /// RAP1B / Fold change vs veh, LOC101060439 /// RAP1B / RFU, RFX7 / Fold change vs veh, RFX7 / RFU, GTPBP10 / Fold change vs veh, GTPBP10 / RFU, CNEP1R1 / Fold change vs veh, CNEP1R1 / RFU, BIVM-ERCC5 /// ERCC5 / Fold change vs veh, BIVM-ERCC5 /// ERCC5 / RFU, ILF3 / Fold change vs veh, ILF3 / RFU 11762660_at / Fold change /veh 11762660_at / RFU VCAN (11757783_s_at) / Fold change /veh VCAN (11757783_s_at) / RFU DDX43 (11728927_at) / Fold change /veh DDX43 (11728927_at) / RFU KRT8 (11758188_x_at) / Fold change /veh KRT8 (11758188_x_at) / RFU NKD1 (11759106_at) / Fold change /veh NKD1 (11759106_at) / RFU SRD5A1 (11742802_a_at) / Fold change /veh SRD5A1 (11742802_a_at) / RFU TPSAB1 /// TPSB2 (11721975_s_at) / Fold change /veh TPSAB1 /// TPSB2 (11721975_s_at) / RFU GSTM3 (11746129_a_at) / Fold change /veh GSTM3 (11746129_a_at) / RFU IL23R (11737362_x_at) / Fold change /veh IL23R (11737362_x_at) / RFU TMEM51 (11727254_a_at) / Fold change /veh TMEM51 (11727254_a_at) / RFU PIWIL2 (11732686_x_at) / Fold change /veh PIWIL2 (11732686_x_at) / RFU ORM1 (11744905_x_at) / Fold change /veh ORM1 (11744905_x_at) / RFU CCDC152 (11743942_at) / Fold change /veh CCDC152 (11743942_at) / RFU ECM1 (11717891_a_at) / Fold change /veh ECM1 (11717891_a_at) / RFU IL23R (11748794_a_at) / Fold change /veh IL23R (11748794_a_at) / RFU TNFAIP8L3 (11732012_x_at) / Fold change /veh TNFAIP8L3 (11732012_x_at) / RFU MBOAT4 (11741988_at) / Fold change /veh MBOAT4 (11741988_at) / RFU 11764193_at / Fold change /veh 11764193_at / RFU TMEM53 (11763286_at) / Fold change /veh TMEM53 (11763286_at) / RFU MAGEB2 (11727129_at) / Fold change /veh MAGEB2 (11727129_at) / RFU TMEM200A (11744735_a_at) / Fold change /veh TMEM200A (11744735_a_at) / RFU CCDC152 (11751479_a_at) / Fold change /veh CCDC152 (11751479_a_at) / RFU FAM211A (11726209_a_at) / Fold change /veh FAM211A (11726209_a_at) / RFU RGS16 (11746705_a_at) / Fold change /veh RGS16 (11746705_a_at) / RFU VCAN (11755009_s_at) / Fold change /veh VCAN (11755009_s_at) / RFU RHOB (11743442_s_at) / Fold change /veh RHOB (11743442_s_at) / RFU RGS16 (11720943_a_at) / Fold change /veh RGS16 (11720943_a_at) / RFU RGS16 (11720944_at) / Fold change /veh RGS16 (11720944_at) / RFU, VPS4B / Fold change vs veh, VPS4B / RFU, CREB1 / Fold change vs veh, CREB1 / RFU, DNAJC13 / Fold change vs veh, DNAJC13 / RFU, GNAQ / Fold change vs veh, GNAQ / RFU, CDK5R1 / Fold change vs veh, CDK5R1 / RFU, ZRANB3 / Fold change vs veh, ZRANB3 / RFU, CUL4A / Fold change vs veh, CUL4A / RFU, CCNY / Fold change vs veh, CCNY / RFU, UFL1 / Fold change vs veh, UFL1 / RFU, COG3 / Fold change vs veh, COG3 / RFU, DIAPH2 / Fold change vs veh, DIAPH2 / RFU, SKA2 / Fold change vs veh, SKA2 / RFU, AFF3 / Fold change vs veh, AFF3 / RFU, LMF1 / Fold change vs veh, LMF1 / RFU, IPO11 / Fold change vs veh, IPO11 / RFU, DFFB / Fold change vs veh, DFFB / RFU, FOXP1 / Fold change vs veh, FOXP1 / RFU, CARD8 / Fold change vs veh, CARD8 / RFU, STRN3 / Fold change vs veh, STRN3 / RFU, ADK / Fold change vs veh, ADK / RFU, RASSF2 / Fold change vs veh, RASSF2 / RFU, WIPF1 / Fold change vs veh, WIPF1 / RFU, LARP1B / Fold change vs veh, LARP1B / RFU, RASA1 / Fold change vs veh, RASA1 / RFU, RB1 / Fold change vs veh, RB1 / RFU, PPFIA1 / Fold change vs veh, PPFIA1 / RFU, MAT2A / Fold change vs veh, MAT2A / RFU, CCT5 / Fold change vs veh, CCT5 / RFU, WDR92 / Fold change vs veh, WDR92 / RFU, CUX1 / Fold change vs veh, CUX1 / RFU, TTC7A / Fold change vs veh, TTC7A / RFU, TMEM135 / Fold change vs veh, TMEM135 / RFU, DEPTOR / Fold change vs veh, DEPTOR / RFU, CPM / Fold change vs veh, CPM / RFU, DNAJB6 / Fold change vs veh, DNAJB6 / RFU, CACNA2D3 / Fold change vs veh, CACNA2D3 / RFU, DTX4 / Fold change vs veh, DTX4 / RFU, TFCP2 / Fold change vs veh, TFCP2 / RFU, GMCL1 /// GMCL1P1 / Fold change vs veh, GMCL1 /// GMCL1P1 / RFU, AEBP2 / Fold change vs veh, AEBP2 / RFU, SNHG1 /// SNORD22 /// SNORD25 /// SNORD26 /// SNORD27 /// SNORD28 /// SNORD29 /// SNORD31 / Fold change vs veh, SNHG1 /// SNORD22 /// SNORD25 /// SNORD26 /// SNORD27 /// SNORD28 /// SNORD29 /// SNORD31 / Fold change (Aza/veh), C12orf56 (ProbeSet 11735607_a_at) / Fold change (ACY-1035/veh), C12orf56 (ProbeSet 11735607_a_at) / Fold change (Aza/veh), FGFR1OP (ProbeSet 11751329_s_at) / Fold change (ACY-1035/veh), FGFR1OP (ProbeSet 11751329_s_at) / Fold change (Aza/veh), VPS36 (ProbeSet 11739960_a_at) / Fold change (ACY-1035/veh), VPS36 (ProbeSet 11739960_a_at) / RFU SYPL1 (11715823_x_at) / Fold change /veh SYPL1 (11715823_x_at) / RFU IGFBP7 (11715501_s_at) / Fold change /veh IGFBP7 (11715501_s_at) / RFU REEP3 (11722064_at) / Fold change /veh REEP3 (11722064_at) / RFU IGLL1 (11728026_x_at) / Fold change /veh IGLL1 (11728026_x_at): dose or concentration left out as unconfirmed
# Details: MV-4-11 cells, 48 hours
smiles,measurement,value
Nc1ncn([C@@H]2O[C@H](CO)[C@@H](O)[C@H]2O)c(=O)n1 [azacitidine],Fold change /veh SAMD14 (11745864_x_at),0.91

# — PMC5218480 (PLoS ONE, 2017)
